Source: the NIST ThermoML archive (doi:10.1016/j.jct.2014.09.022)

Assays:
[1] = mn = molality of the nth substance listed, in mol/kg; details: 298.15 K, 100 kPa, Liquid; for viscosity: Capillary tube (Ostwald / Ubbelohde) method; for mass density: Vibrating tube method
[2] = refractive index (Na D-line) (dimensionless); mn = molality of the nth substance listed, in mol/kg; details: 298.15 K, 100 kPa, Liquid, Standard Abbe refractometry
[3] = refractive index (Na D-line) (dimensionless); details: 298.15 K; 100 kPa; Liquid; Standard Abbe refractometry
[4] = 298.15 K, 100 kPa, Liquid

CCCCCCn1cc[n+](C)c1.[Cl-] [1-hexyl-3-methylimidazolium chloride] + CC(=O)N(C)C
Details	mass density, [1] [kg/m3]	refractive index, [2]	viscosity, [1] [mPa·s]
m1 = 0.0226	936.94	1.4283	1.029
m1 = 0.0468	937.6	1.429	1.042
m1 = 0.06	937.96	1.4295	1.057
m1 = 0.0797	938.48	1.4297	1.072
m1 = 0.1002	939.02	1.43	1.087
m1 = 0.1216	939.55	1.4303	1.106
m1 = 0.141	940.04	1.4307	1.123
m1 = 0.1621	940.56	1.431	1.129
m1 = 0.1781	940.95	1.4312	1.137
m1 = 0.2012	941.49	1.432	1.142

C(=NCCN=Cc1ccccn1)c1ccccn1 [N,N'-bis(2-pyridinylmethylene)-1,2-ethanediamine] + CC(=O)N(C)C
Details	mass density, [1] [kg/m3]	refractive index, [2]	viscosity, [1] [mPa·s]
m1 = 0.0471	937.73	1.4291	1.035
m1 = 0.091	939.12	1.43	1.069
m1 = 0.1327	940.31	1.4317	1.082
m1 = 0.1768	941.81	1.433	1.1

CC(=O)N(C)C [N,N-dimethylethanamide]
Details	refractive index
[3]	1.4278

[4]
Details	mass density [kg/m3]	viscosity [mPa·s]
Capillary tube (Ostwald / Ubbelohde) method	–	0.989
Vibrating tube method	936.31	–
